# Measurements reported in US8404679B2, “Pyrrolidine derivatives as NK2 receptor antagonists” (Hoffmann-La Roche Inc., priority 2008, dated 2013).
# Biological target: T1, human NK2 receptor (Homo sapiens, UniProt P21452)
# T1 construct: purchased Perkin Elmer biosignal Inc. 6110510
# T1 sequence (P21452 1-398): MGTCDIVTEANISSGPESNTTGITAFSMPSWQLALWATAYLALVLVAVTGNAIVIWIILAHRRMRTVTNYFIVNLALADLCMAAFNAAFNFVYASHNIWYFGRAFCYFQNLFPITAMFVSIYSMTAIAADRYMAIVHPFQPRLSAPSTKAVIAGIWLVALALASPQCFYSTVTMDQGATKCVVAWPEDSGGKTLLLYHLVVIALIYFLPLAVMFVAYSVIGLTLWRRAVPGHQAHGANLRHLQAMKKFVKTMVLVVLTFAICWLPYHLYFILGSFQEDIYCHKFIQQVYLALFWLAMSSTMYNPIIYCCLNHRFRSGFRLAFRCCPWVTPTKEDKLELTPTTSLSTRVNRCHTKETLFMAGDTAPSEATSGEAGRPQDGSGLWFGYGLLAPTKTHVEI
# Test: [3H]SR48968 competition binding assay
# Details: [3H]SR48968 displacement, membranes of CHO cells stably expressing recombinant human NK2 receptor; Ki from IC50 by Cheng-Prussoff
# Procedure: [^3H]SR48968 Competition Binding Assay
# hNK2 receptor binding experiment were performed using [^3H]SR48968 (Catalog No. TRK398, specific activity: 27.0 Ci/mmol, Amersham, GE Healthcare UK limited, Buckinghamshire, UK) and membrane isolated from CHO cells stably expressing recombinant human NK2 receptor (product No. 6110510, Perkin Elmer biosignal Inc., Shelton, Conn., USA). After thawing, the membrane homogenates were centrifuged at 48,000×g for 10 min at 4° C., the pellets were resuspended in the 50 mM Tris-HCl, 3 mM MnCl2, 4 μg/mL Chymostatin, 0.04% BSA binding buffer at pH 7.4 to a final assay concentration of 6.5 μg protein/well. For inhibition experiments, membranes were incubated with [^3H]SR48968 at a concentration equal to KD value of radioligand and 10 concentrations of the inhibitory compound (0.0003-10 μM) (in a total reaction volume of 500 μl) for 75 min at room temperature (RT). At the end of the incubation, membranes were filtered onto unitfilter (96-well white microplate with bonded GF/C filter preincubated 1 h in 0.3% polyethylenimine, Packard BioScience, Meriden, Conn.) with a Filtermate 196 harvester (Packard BioScience) and washed 4 times with ice-cold 50 mM Tris-HCl, pH 7.4 buffer. Nonspecific binding was measured in the presence of 10 μM 1-{2-[(R)-3-(3,4-dichloro-phenyl)-1-(3,4,5-trimethoxy-benzoyl)-pyrrolidin-3-yl]-ethyl}-4-phenyl-piperidine-4-carboxylic acid amide. The radioactivity on the filter was counted (5 min) on a Packard Top-count microplate scintillation counter with quenching correction after addition of 45 μl of microscint 40 (Canberra Packard S. A., Zürich, Switzerland) and shaking for 1 h. Inhibition curves were fitted according to the Hill equation: y=100/(1+(x/IC50)^nH), where nH=slope factor using Excel-fit 4 software (Microsoft). IC50 values were derived from the inhibition curve and the affinity constant (Ki) values were calculated using the Cheng-Prussoff equation Ki=IC50/(1+[L]/KD) where [L] was the concentration of radioligand and KD was its dissociation constant at the receptor, derived from the saturation isotherm.
row,Structure (SMILES),Ki
1,"COc1ccc(C(=O)N(C)[C@H]2CN(C(=O)C3CCN(C(=O)C4(C)CC4)CC3)C[C@@H]2c2ccc(Cl)c(Cl)c2)cc1C(F)(F)F (racemic) [Example 96, N-{(3RS,4SR)-4-(3,4-Dichloro-phenyl)-1-[1-(1-methyl-cyclopropanecarbonyl)-piperidine-4-carbonyl]-pyrrolidin-3-yl}-4-methoxy-N-methyl-3-trifluoromethyl-benzamide]",0.8 nM
2,"CN(C(=O)c1ccccc1)[C@@H]1CN(C(=O)N2CCN(S(C)(=O)=O)CC2)C[C@H]1c1ccc(Cl)c(Cl)c1 (racemic) [Example 9, rac-N-[(3S,4R)-4-(3,4-Dichloro-phenyl)-1-(4-methanesulfonyl-piperazine-1-carbonyl)-pyrrolidin-3-yl]-N-methyl-benzamide]",86.9 nM
3,"CN(C(=O)c1ccc(F)c(OC(F)(F)F)c1)[C@H]1CN(C(=O)C2CCN(C(=O)C3(C)CC3)CC2)C[C@@H]1c1ccc(Cl)c(Cl)c1 (racemic) [Example 98, N-{(3RS,4SR)-4-(3,4-Dichloro-phenyl)-1-[1-(1-methyl-cyclopropanecarbonyl)-piperidine-4-carbonyl]-pyrrolidin-3-yl}-4-fluoro-N-methyl-3-trifluoromethoxy-benzamide]",0.9 nM
4,"CN(C(=O)c1ccc(F)c(F)c1)[C@@H]1CN(C(=O)N2CCN(S(C)(=O)=O)CC2)C[C@H]1c1ccc(Cl)c(Cl)c1 (racemic) [Example 27, rac-N-[(3S,4R)-4-(3,4-Dichloro-phenyl)-1-(4-methanesulfonyl-piperazine-1-carbonyl)-pyrrolidin-3-yl]-3,4-difluoro-N-methyl-benzamide]",16.2 nM
5,"CN(C(=O)c1ccc2nccnc2c1)[C@@H]1CN(C(=O)N2CCN(S(C)(=O)=O)CC2)C[C@H]1c1ccc(Cl)c(Cl)c1 (racemic) [Example 34, rac-Quinoxaline-6-carboxylic acid [(3S,4R)-4-(3,4-dichloro-phenyl)-1-(4-methanesulfonyl-piperazine-1-carbonyl)-pyrrolidin-3-yl]-methyl-amide]",76.7 nM
6,"CCOCc1ccc(C(=O)N(C)[C@@H]2CN(C(=O)c3ccc(C#N)cc3)C[C@H]2c2ccc(Cl)c(Cl)c2)nc1 (racemic) [Example 65, rac-5-Ethoxymethyl-pyridine-2-carboxylic acid [(3S,4R)-1-(4-cyano-benzoyl)-4-(3,4-dichloro-phenyl)-pyrrolidin-3-yl]-methyl-amide]",30.2 nM
7,"CN(C(=O)c1ccc2c(c1)OC(F)(F)O2)[C@@H]1CN(C(=O)N2CCN(S(C)(=O)=O)CC2)C[C@H]1c1ccc(Cl)c(Cl)c1 (racemic) [Example 28, rac-2,2-Difluoro-benzo[1,3]dioxole-5-carboxylic acid [(3S,4R)-4-(3,4-dichloro-phenyl)-1-(4-methanesulfonyl-piperazine-1-carbonyl)-pyrrolidin-3-yl]-methyl-amide]",2.04 nM
8,"CN(C(=O)c1ccc(F)nc1)[C@@H]1CN(C(=O)c2ccc(C#N)cc2)C[C@H]1c1ccc(Cl)c(Cl)c1 (racemic) [Example 85, rac-N-[(3S,4R)-1-(4-Cyano-benzoyl)-4-(3,4-dichloro-phenyl)-pyrrolidin-3-yl]-6-fluoro-N-methyl-nicotinamide]",82.1 nM
9,"COc1cc(C(=O)N(C)[C@H]2CN(C(=O)C3CCN(C(=O)C4(C)CC4)CC3)C[C@@H]2c2ccc(Cl)c(Cl)c2)ccc1Cl (racemic) [Example 99, 4-Chloro-N-{(3RS,4SR)-4-(3,4-dichloro-phenyl)-1-[1-(1-methyl-cyclopropanecarbonyl)-piperidine-4-carbonyl]-pyrrolidin-3-yl}-3-methoxy-N-methyl-benzamide]",0.9 nM
10,"Cc1cc(Cl)cc(C(=O)N(C)[C@@H]2CN(C(=O)c3ccc(C#N)cc3)C[C@H]2c2ccc(Cl)c(Cl)c2)n1 (racemic) [Example 66, rac-4-Chloro-6-methyl-pyridine-2-carboxylic acid [(3S,4R)-1-(4-cyano-benzoyl)-4-(3,4-dichloro-phenyl)-pyrrolidin-3-yl]-methyl-amide]",49.8 nM
11,"COc1ccc(C(=O)N(C)[C@H]2CN(C(=O)C3CCN(CC(C)(C)C)CC3)C[C@@H]2c2ccc(Cl)cc2)cc1C(F)(F)F (racemic) [Example 120, N-{(3RS,4SR)-4-(4-Chloro-phenyl)-1-[1-(2,2-dimethyl-propyl)-piperidine-4-carbonyl]-pyrrolidin-3-yl}-4-methoxy-N-methyl-3-trifluoromethyl-benzamide]",0.8 nM
12,"COc1ccc(C(=O)N(C)[C@@H]2CN(C(=O)c3ccc(C(F)(F)F)cc3)C[C@H]2c2ccc(Cl)c(Cl)c2)cc1C(F)(F)F (racemic) [Example 50, rac-N-[(3S,4R)-4-(3,4-Dichloro-phenyl)-1-(4-trifluoromethyl-benzoyl)-pyrrolidin-3-yl]-4-methoxy-N-methyl-3-trifluoromethyl-benzamide]",6.3 nM

# Next, values leading:
row,Ki,Structure (SMILES)
1,23 nM,"CN(C(=O)Cc1cccc(F)c1F)[C@H]1CN(C(=O)C2CCN(CC3CC3)CC2)C[C@@H]1c1ccc(Cl)c(Cl)c1 (racemic) [Example 152, N-[(3RS,4SR)-1-(1-Cyclopropylmethyl-piperidine-4-carbonyl)-4-(3,4-dichloro-phenyl)-pyrrolidin-3-yl]-2-(2,3-difluoro-phenyl)-N-methyl-acetamide]"
2,1.3 nM,"CN(C(=O)c1ccc(Cl)c(C(F)(F)F)c1)[C@H]1CN(C(=O)C2CCN(CCC#N)CC2)C[C@@H]1c1ccc(Cl)cc1 (racemic) [Example 165, 4-Chloro-N-{(3RS,4SR)-4-(4-chloro-phenyl)-1-[1-(2-cyano-ethyl)-piperidine-4-carbonyl]-pyrrolidin-3-yl}-N-methyl-3-trifluoromethyl-benzamide]"
3,25.4 nM,"CN(C(=O)Cc1ccc(Cl)cc1)[C@H]1CN(C(=O)C2CCN(CC3CC3)CC2)C[C@@H]1c1ccc(Cl)c(Cl)c1 (racemic) [Example 158, 2-(4-Chloro-phenyl)-N-[(3RS,4SR)-1-(1-cyclopropylmethyl-piperidine-4-carbonyl)-4-(3,4-dichloro-phenyl)-pyrrolidin-3-yl]-N-methyl-acetamide]"
4,1.1 nM,"CCOC(=O)N1CCC(C(=O)N2C[C@H](c3ccc(Cl)c(Cl)c3)[C@@H](N(C)C(=O)c3ccc(OC)c(C(F)(F)F)c3)C2)CC1 (racemic) [Example 145, 4-{(3SR,4RS)-3-(3,4-Dichloro-phenyl)-4-[(4-methoxy-3-trifluoromethyl-benzoyl)-methyl-amino]-pyrrolidine-1-carbonyl}-piperidine-1-carboxylic acid ethyl ester]"
5,35 nM,"COC1CCC(C(=O)N2C[C@H](c3ccc(Cl)c(Cl)c3)[C@@H](N(C)C(=O)Cc3ccc(F)cc3)C2)CC1 (mixture of isomers) [Example 127, N-[(3RS,4SR)-4-(3,4-Dichloro-phenyl)-1-(4-methoxy-cyclohexanecarbonyl)-pyrrolidin-3-yl]-2-(4-fluoro-phenyl)-N-methyl-acetamide]"
6,1.7 nM,"CN(C(=O)c1ccc(Cl)c(C(F)(F)F)c1)[C@H]1CN(C(=O)C2CCN(S(=O)(=O)C3CC3)CC2)C[C@@H]1c1ccc(Cl)cc1 (racemic) [Example 161, 4-Chloro-N-[(3RS,4SR)-4-(4-chloro-phenyl)-1-(1-cyclopropanesulfonyl-piperidine-4-carbonyl)-pyrrolidin-3-yl]-N-methyl-3-trifluoromethyl-benzamide]"
7,43.3 nM,"CC(C(=O)N(C)[C@H]1CN(C(=O)C2CCN(CC3CC3)CC2)C[C@@H]1c1ccc(Cl)c(Cl)c1)c1ccc(F)cc1 (mixture of isomers) [Example 159, N-[(3RS,4SR)-1-(1-Cyclopropylmethyl-piperidine-4-carbonyl)-4-(3,4-dichloro-phenyl)-pyrrolidin-3-yl]-2-(4-fluoro-phenyl)-N-methyl-propionamide]"
8,0.6 nM,"CN(C(=O)c1ccc(Cl)c(C2CC2)c1)[C@@H]1CN(C(=O)C2CCN(C(=O)C3(C)CC3)CC2)C[C@H]1c1ccc(Cl)c(Cl)c1 [Example 176, 4-Chloro-3-cyclopropyl-N-{(3S,4R)-4-(3,4-dichloro-phenyl)-1-[1-(1-methyl-cyclopropanecarbonyl)-piperidine-4-carbonyl]-pyrrolidin-3-yl}-N-methyl-benzamide]"
